Measured values taken from the supplement of paper PMC13207355.
Counter-ions that a name gives are not always drawn.

Assays:
Conditions in all cases: exposure time: 72 h
E34 [1] = patient-derived glioblastoma stem cells of proneural subtype; test: phenotypic distance (Euclidean, principal components) from DMSO controls (arbitrary units); higher = stronger morphological change
E21 [2] = patient-derived glioblastoma stem cells of mesenchymal subtype; test: as above
FT3469 [3] = normal neural stem cell line; test: as above
E57 [4] = patient-derived glioblastoma stem cells of mesenchymal subtype; test: as above
E31 [5] = patient-derived glioblastoma stem cells of proneural subtype; test: as above
E13 [6] = patient-derived glioblastoma stem cells of classical subtype; test: as above
E28 [7] = patient-derived glioblastoma stem cells of classical subtype; test: as above
E34 [8] = test: surviving fraction (nuclei count normalised to DMSO); higher = more cells surviving (less toxic)
E21 [9] = test: as above
FT3469 [10] = test: as above
E57 [11] = test: as above
E31 [12] = test: as above
E13 [13] = test: as above
E28 [14] = test: as above
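Throughout, for phenotypic distance (Euclidean, principal components) from DMSO controls: cell Painting imaging in 384-well plates, CellProfiler features reduced to at least 20 principal components, Euclidean distance versus same-plate DMSO vehicle wells (0.1% v/v), median over six images per well.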
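Throughout, for surviving fraction (nuclei count normalised to DMSO): nuclei counted by high-content imaging of Hoechst-stained cells in laminin-coated 384-well plates, relative to 0.1% DMSO vehicle wells, with staurosporine as cell-death control.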

Compound: CC(C)C[C@H]1C(=O)N2CCC[C@H]2[C@]2(O)O[C@](NC(=O)[C@@H]3C=C4c5cccc6[nH]c(Br)c(c56)C[C@H]4N(C)C3)(C(C)C)C(=O)N12 [Bromocryptine mesylate]
- phenotypic distance (E34 [1]; 4.1 nM): 0.67
- phenotypic distance (E34 [1]; 12.3 nM): 0.914
- phenotypic distance (E34 [1]; 37 nM): 0.493
- phenotypic distance (E34 [1]; 111.1 nM): 0.843
- phenotypic distance (E34 [1]; 333.3 nM): 1.2
- phenotypic distance (E34 [1]; 1000 nM): 0.94
- phenotypic distance (E34 [1]; 3000 nM): 1.28
- phenotypic distance (E21 [2]; 4.1 nM): 0.67
- phenotypic distance (E21 [2]; 12.3 nM): 0.901
- phenotypic distance (E21 [2]; 37 nM): 0.972
- phenotypic distance (E21 [2]; 111.1 nM): 0.667
- phenotypic distance (E21 [2]; 333.3 nM): 0.353
- phenotypic distance (E21 [2]; 1000 nM): 0.811
- phenotypic distance (E21 [2]; 3000 nM): 0.593
- phenotypic distance (FT3469 [3]; 4.1 nM): 1.05
- phenotypic distance (FT3469 [3]; 12.3 nM): 1.08
- phenotypic distance (FT3469 [3]; 37 nM): 0.956
- phenotypic distance (FT3469 [3]; 111.1 nM): 0.691
- phenotypic distance (FT3469 [3]; 333.3 nM): 0.43
- phenotypic distance (FT3469 [3]; 1000 nM): 0.442
- phenotypic distance (FT3469 [3]; 3000 nM): 0.73
- phenotypic distance (E57 [4]; 4.1 nM): 0.496
- phenotypic distance (E57 [4]; 12.3 nM): 0.874
- phenotypic distance (E57 [4]; 37 nM): 0.757
- phenotypic distance (E57 [4]; 111.1 nM): 5.36
- phenotypic distance (E57 [4]; 333.3 nM): 0.51
- phenotypic distance (E57 [4]; 1000 nM): 0.474
- phenotypic distance (E57 [4]; 3000 nM): 1.74
- phenotypic distance (E31 [5]; 4.1 nM): 0.381
- phenotypic distance (E31 [5]; 12.3 nM): 0.548
- phenotypic distance (E31 [5]; 37 nM): 0.581
- phenotypic distance (E31 [5]; 111.1 nM): 0.404
- phenotypic distance (E31 [5]; 333.3 nM): 0.658
- phenotypic distance (E31 [5]; 1000 nM): 0.705
- phenotypic distance (E31 [5]; 3000 nM): 0.828
- phenotypic distance (E13 [6]; 4.1 nM): 0.797
- phenotypic distance (E13 [6]; 12.3 nM): 0.698
- phenotypic distance (E13 [6]; 37 nM): 0.44
- phenotypic distance (E13 [6]; 111.1 nM): 1.07
- phenotypic distance (E13 [6]; 333.3 nM): 0.683
- phenotypic distance (E13 [6]; 1000 nM): 1.03
- phenotypic distance (E13 [6]; 3000 nM): 1.57
- phenotypic distance (E28 [7]; 4.1 nM): 1.04
- phenotypic distance (E28 [7]; 12.3 nM): 0.531
- phenotypic distance (E28 [7]; 37 nM): 0.575
- phenotypic distance (E28 [7]; 111.1 nM): 0.661
- phenotypic distance (E28 [7]; 333.3 nM): 0.642
- phenotypic distance (E28 [7]; 1000 nM): 0.784
- phenotypic distance (E28 [7]; 3000 nM): 1.28
- surviving fraction (E34 [8]; 4.1 nM): 0.907
- surviving fraction (E34 [8]; 12.3 nM): 0.846
- surviving fraction (E34 [8]; 37 nM): 0.967
- surviving fraction (E34 [8]; 111.1 nM): 1.16
- surviving fraction (E34 [8]; 333.3 nM): 0.879
- surviving fraction (E34 [8]; 1000 nM): 1.05
- surviving fraction (E34 [8]; 3000 nM): 0.727
- surviving fraction (E21 [9]; 4.1 nM): 1.06
- surviving fraction (E21 [9]; 12.3 nM): 1.02
- surviving fraction (E21 [9]; 37 nM): 1.05
- surviving fraction (E21 [9]; 111.1 nM): 0.989
- surviving fraction (E21 [9]; 333.3 nM): 1
- surviving fraction (E21 [9]; 1000 nM): 0.969
- surviving fraction (E21 [9]; 3000 nM): 0.967
- surviving fraction (FT3469 [10]; 4.1 nM): 0.76
- surviving fraction (FT3469 [10]; 12.3 nM): 0.909
- surviving fraction (FT3469 [10]; 37 nM): 1.01
- surviving fraction (FT3469 [10]; 111.1 nM): 0.932
- surviving fraction (FT3469 [10]; 333.3 nM): 0.984
- surviving fraction (FT3469 [10]; 1000 nM): 1.01
- surviving fraction (FT3469 [10]; 3000 nM): 0.912
- surviving fraction (E57 [11]; 4.1 nM): 0.932
- surviving fraction (E57 [11]; 12.3 nM): 1.13
- surviving fraction (E57 [11]; 37 nM): 0.893
- surviving fraction (E57 [11]; 111.1 nM): 1.05
- surviving fraction (E57 [11]; 333.3 nM): 1.01
- surviving fraction (E57 [11]; 1000 nM): 0.91
- surviving fraction (E57 [11]; 3000 nM): 0.777
- surviving fraction (E31 [12]; 4.1 nM): 1.07
- surviving fraction (E31 [12]; 12.3 nM): 1.06
- surviving fraction (E31 [12]; 37 nM): 0.944
- surviving fraction (E31 [12]; 111.1 nM): 1.15
- surviving fraction (E31 [12]; 333.3 nM): 1.03
- surviving fraction (E31 [12]; 1000 nM): 1.13
- surviving fraction (E31 [12]; 3000 nM): 0.897
- surviving fraction (E13 [13]; 4.1 nM): 0.907
- surviving fraction (E13 [13]; 12.3 nM): 0.944
- surviving fraction (E13 [13]; 37 nM): 0.958
- surviving fraction (E13 [13]; 111.1 nM): 0.816
- surviving fraction (E13 [13]; 333.3 nM): 0.981
- surviving fraction (E13 [13]; 1000 nM): 0.976
- surviving fraction (E13 [13]; 3000 nM): 0.8
- surviving fraction (E28 [14]; 4.1 nM): 1.1
- surviving fraction (E28 [14]; 12.3 nM): 1.07
- surviving fraction (E28 [14]; 37 nM): 1.07
- surviving fraction (E28 [14]; 111.1 nM): 1.12
- surviving fraction (E28 [14]; 333.3 nM): 0.978
- surviving fraction (E28 [14]; 1000 nM): 1.05
- surviving fraction (E28 [14]; 3000 nM): 0.779

Compound: COc1cc(OC)c(C(=O)CCCN2CCCC2)c(OC)c1 [Buflomedil hydrochloride]
- phenotypic distance (E34 [1]; 4.1 nM): 0.771
- phenotypic distance (E34 [1]; 12.3 nM): 0.727
- phenotypic distance (E34 [1]; 37 nM): 0.358
- phenotypic distance (E34 [1]; 111.1 nM): 1.11
- phenotypic distance (E34 [1]; 333.3 nM): 0.684
- phenotypic distance (E34 [1]; 1000 nM): 0.961
- phenotypic distance (E34 [1]; 3000 nM): 0.717
- phenotypic distance (E21 [2]; 4.1 nM): 0.617
- phenotypic distance (E21 [2]; 12.3 nM): 0.741
- phenotypic distance (E21 [2]; 37 nM): 0.582
- phenotypic distance (E21 [2]; 111.1 nM): 0.712
- phenotypic distance (E21 [2]; 333.3 nM): 0.706
- phenotypic distance (E21 [2]; 1000 nM): 0.913
- phenotypic distance (E21 [2]; 3000 nM): 0.567
- phenotypic distance (FT3469 [3]; 4.1 nM): 0.468
- phenotypic distance (FT3469 [3]; 12.3 nM): 4.94
- phenotypic distance (FT3469 [3]; 37 nM): 1.05
- phenotypic distance (FT3469 [3]; 111.1 nM): 0.796
- phenotypic distance (FT3469 [3]; 333.3 nM): 0.368
- phenotypic distance (FT3469 [3]; 1000 nM): 0.514
- phenotypic distance (FT3469 [3]; 3000 nM): 1.05
- phenotypic distance (E57 [4]; 4.1 nM): 0.802
- phenotypic distance (E57 [4]; 12.3 nM): 1.18
- phenotypic distance (E57 [4]; 37 nM): 4.02
- phenotypic distance (E57 [4]; 111.1 nM): 0.575
- phenotypic distance (E57 [4]; 333.3 nM): 0.903
- phenotypic distance (E57 [4]; 1000 nM): 0.71
- phenotypic distance (E57 [4]; 3000 nM): 0.526
- phenotypic distance (E31 [5]; 4.1 nM): 0.629
- phenotypic distance (E31 [5]; 12.3 nM): 0.47
- phenotypic distance (E31 [5]; 37 nM): 0.918
- phenotypic distance (E31 [5]; 111.1 nM): 0.593
- phenotypic distance (E31 [5]; 333.3 nM): 0.443
- phenotypic distance (E31 [5]; 1000 nM): 0.577
- phenotypic distance (E31 [5]; 3000 nM): 0.55
- phenotypic distance (E13 [6]; 4.1 nM): 0.727
- phenotypic distance (E13 [6]; 12.3 nM): 0.83
- phenotypic distance (E13 [6]; 37 nM): 0.928
- phenotypic distance (E13 [6]; 111.1 nM): 0.845
- phenotypic distance (E13 [6]; 333.3 nM): 0.564
- phenotypic distance (E13 [6]; 1000 nM): 0.536
- phenotypic distance (E13 [6]; 3000 nM): 0.71
- phenotypic distance (E28 [7]; 4.1 nM): 0.701
- phenotypic distance (E28 [7]; 12.3 nM): 0.827
- phenotypic distance (E28 [7]; 37 nM): 0.611
- phenotypic distance (E28 [7]; 111.1 nM): 0.817
- phenotypic distance (E28 [7]; 333.3 nM): 0.347
- phenotypic distance (E28 [7]; 1000 nM): 0.489
- phenotypic distance (E28 [7]; 3000 nM): 0.878
- surviving fraction (E34 [8]; 4.1 nM): 0.963
- surviving fraction (E34 [8]; 12.3 nM): 1.03
- surviving fraction (E34 [8]; 37 nM): 1.02
- surviving fraction (E34 [8]; 111.1 nM): 1.11
- surviving fraction (E34 [8]; 333.3 nM): 1.02
- surviving fraction (E34 [8]; 1000 nM): 1.22
- surviving fraction (E34 [8]; 3000 nM): 0.991
- surviving fraction (E21 [9]; 4.1 nM): 1.05
- surviving fraction (E21 [9]; 12.3 nM): 1.06
- surviving fraction (E21 [9]; 37 nM): 1.02
- surviving fraction (E21 [9]; 111.1 nM): 1.12
- surviving fraction (E21 [9]; 333.3 nM): 1.13
- surviving fraction (E21 [9]; 1000 nM): 1.12
- surviving fraction (E21 [9]; 3000 nM): 0.927
- surviving fraction (FT3469 [10]; 4.1 nM): 0.947
- surviving fraction (FT3469 [10]; 12.3 nM): 1.27
- surviving fraction (FT3469 [10]; 37 nM): 1.15
- surviving fraction (FT3469 [10]; 111.1 nM): 1
- surviving fraction (FT3469 [10]; 333.3 nM): 1.03
- surviving fraction (FT3469 [10]; 1000 nM): 1.1
- surviving fraction (FT3469 [10]; 3000 nM): 0.993
- surviving fraction (E57 [11]; 4.1 nM): 1.06
- surviving fraction (E57 [11]; 12.3 nM): 1.03
- surviving fraction (E57 [11]; 37 nM): 0.98
- surviving fraction (E57 [11]; 111.1 nM): 1.02
- surviving fraction (E57 [11]; 333.3 nM): 1.04
- surviving fraction (E57 [11]; 1000 nM): 0.994
- surviving fraction (E57 [11]; 3000 nM): 0.9
- surviving fraction (E31 [12]; 4.1 nM): 0.968
- surviving fraction (E31 [12]; 12.3 nM): 0.998
- surviving fraction (E31 [12]; 37 nM): 1.23
- surviving fraction (E31 [12]; 111.1 nM): 1.03
- surviving fraction (E31 [12]; 333.3 nM): 1.2
- surviving fraction (E31 [12]; 1000 nM): 1.04
- surviving fraction (E31 [12]; 3000 nM): 1.02
- surviving fraction (E13 [13]; 4.1 nM): 0.886
- surviving fraction (E13 [13]; 12.3 nM): 1.12
- surviving fraction (E13 [13]; 37 nM): 1.19
- surviving fraction (E13 [13]; 111.1 nM): 1.13
- surviving fraction (E13 [13]; 333.3 nM): 1.01
- surviving fraction (E13 [13]; 1000 nM): 1.17
- surviving fraction (E13 [13]; 3000 nM): 0.944
- surviving fraction (E28 [14]; 4.1 nM): 1.16
- surviving fraction (E28 [14]; 12.3 nM): 1.19
- surviving fraction (E28 [14]; 37 nM): 0.856
- surviving fraction (E28 [14]; 111.1 nM): 1.21
- surviving fraction (E28 [14]; 333.3 nM): 1.1
- surviving fraction (E28 [14]; 1000 nM): 1.16
- surviving fraction (E28 [14]; 3000 nM): 0.677
